US11472791B2 (Incyte Corporation, priority 2019, dated 2022)

biological target: CDK2/Cyclin E1 (Homo sapiens (Human), UniProt P24941); assay: CDK2/Cyclin E1 HTRF enzyme activity assay; assay type: biochemical; settings: 1 mM ATP
Procedure: Assays are conducted in white 384-well polystyrene plates in a final reaction volume of 8 μL. […] HTRF signals are read after 1 hour at room temperature on a PHERAstar FS plate reader (BMG Labtech). Data is analyzed with IDBS XLFit and GraphPad Prism 5.0 software using a three or four parameter dose response curve to determine IC50 for each compound.

| IC50 [nM] | Compound |
| --- | --- |
| < 50 | Cc1cc(CN2CCN(C)CC2)ccc1-n1cc(-c2nc(NC3CCN(S(=O)(=O)C4CC4)CC3)ncc2C#N)cn1 [Example 242, 2-((1-(Cyclopropylsulfonyl)piperidin-4-yl)amino)-4-(1-(2-methyl-4-((4-methylpiperazin-1-yl)methyl)phenyl)-1H-pyrazol-4-yl)pyrimidine-5-carbonitrile] |
| < 50 | Cc1cc(CN2CCN(C)CC2)ccc1-n1cc(-c2nc(NC3CCN(S(=O)(=O)c4cn(C)cn4)CC3)ncc2C#N)cn1 [Example 243, 2-((1-((1-Methyl-1H-imidazol-4-yl)sulfonyl)piperidin-4-yl)amino)-4-(1-(2-methyl-4-((4-methylpiperazin-1-yl)methyl)phenyl)-1H-pyrazol-4-yl)pyrimidine-5-carbonitrile] |
| < 50 | CN1CCN(Cc2ccc(-n3cc(-c4nc(NC5CCN(S(=O)(=O)c6cn(C)cn6)CC5)ncc4Cl)cn3)c(C#N)c2)CC1 [Example 244, 2-(4-(5-Chloro-2-((1-((1-methyl-1H-imidazol-4-yl)sulfonyl)piperidin-4-yl)amino)pyrimidin-4-yl)-1H-pyrazol-1-yl)-5-((4-methylpiperazin-1-yl)methyl)benzonitrile] |
| < 50 | CCN1CCN(Cc2ccc(-n3cc(-c4nc(NC5CCN(S(=O)(=O)c6cn(C)cn6)CC5)ncc4Cl)cn3)c(C)c2)CC1 [Example 245, 5-Chloro-4-(1-(4-((4-ethylpiperazin-1-yl)methyl)-2-methylphenyl)-1H-pyrazol-4-yl)-N-(1-((1-methyl-1H-imidazol-4-yl)sulfonyl)piperidin-4-yl)pyrimidin-2-amine] |
| < 50 | Cc1cc(CN2CCN(CC3CC3)CC2)ccc1-n1cc(-c2nc(NC3CCN(S(=O)(=O)c4cn(C)cn4)CC3)ncc2Cl)cn1 [Example 246, 5-Chloro-4-(1-(4-((4-(cyclopropylmethyl)piperazin-1-yl)methyl)-2-methylphenyl)-1H-pyrazol-4-yl)-N-(1-((1-methyl-1H-imidazol-4-yl)sulfonyl)piperidin-4-yl)pyrimidin-2-amine] |
| < 50 | Cc1cc(CN2CCN(C(C)C)CC2)ccc1-n1cc(-c2nc(NC3CCN(S(=O)(=O)c4cn(C)cn4)CC3)ncc2Cl)cn1 [Example 247, 5-Chloro-4-(1-(4-((4-isopropylpiperazin-1-yl)methyl)-2-methylphenyl)-1H-pyrazol-4-yl)-N-(1-((1-methyl-1H-imidazole-4-yl)sulfonyl)piperidin-4-yl)pyrimidin-2-amine] |
| < 50 | Cc1cc(CN2CCN(C)C(=O)C2)ccc1-n1cc(-c2nc(NC3CCN(S(=O)(=O)c4cn(C)cn4)CC3)ncc2Cl)cn1 [Example 248, 4-(4-(4-(5-Chloro-2-((1-((1-methyl-1H-imidazol-4-yl)sulfonyl)piperidin-4-yl)amino)pyrimidin-4-yl)-1H-pyrazol-1-yl)-3-methylbenzyl)-1-methylpiperazin-2-one] |
| < 50 | Cc1nc(CN2CCN(C)CC2)ccc1-n1cc(-c2nc(NC3CCN(S(=O)(=O)c4cn(C)cn4)CC3)ncc2Cl)cn1 [Example 249, 5-Chloro-N-(1-((1-methyl-1H-imidazol-4-yl)sulfonyl)piperidin-4-yl)-4-(1-(2-methyl-6-((4-methylpiperazin-1-yl)methyl)pyridin-3-yl)-1H-pyrazol-4-yl)pyrimidin-2-amine] |
| < 50 | CCN1CCN(Cc2ccc(-n3cc(-c4nc(NC5CCN(S(=O)(=O)c6cn(C)cn6)CC5)ncc4Cl)cn3)c(C)n2)CC1 [Example 250, 5-Chloro-4-(1-(6-((4-ethylpiperazin-1-yl)methyl)-2-methylpyridin-3-yl)-1H-pyrazol-4-yl)-N-(1-((1-methyl-1H-imidazol-4-yl)sulfonyl)piperidin-4-yl)pyrimidin-2-amine] |
| < 50 | Cc1nc(CN2CCN(C(C)C)CC2)ccc1-n1cc(-c2nc(NC3CCN(S(=O)(=O)c4cn(C)cn4)CC3)ncc2Cl)cn1 [Example 251, 5-Chloro-4-(1-(6-((4-isopropylpiperazin-1-yl)methyl)-2-methylpyridin-3-yl)-1H-pyrazol-4-yl)-N-(1-((1-methyl-1H-imidazol-4-yl)sulfonyl)piperidin-4-yl)pyrimidin-2-amine] |
| < 50 | Cc1nc(CN2CCN(C)CC2)ccc1-n1cc(-c2nc(NC3CCN(S(=O)(=O)c4cn(C)cn4)CC3)ncc2C(F)(F)F)cn1 [Example 252, N-(1-((1-Methyl-1H-imidazol-4-yl)sulfonyl)piperidin-4-yl)-4-(1-(2-methyl-6-((4-methylpiperazin-1-yl)methyl)pyridin-3-yl)-1H-pyrazol-4-yl)-5-(trifluoromethyl)pyrimidin-2-amine] |
| < 50 | CCN1CCN(Cc2ccc(-n3cc(-c4nc(NC5CCN(S(=O)(=O)c6cn(C)cn6)CC5)ncc4C(F)(F)F)cn3)c(C)n2)CC1 [Example 253, 4-(1-(6-((4-Ethylpiperazin-1-yl)methyl)-2-methylpyridin-3-yl)-1H-pyrazol-4-yl)-N-(1-((1-methyl-1H-imidazol-4-yl)sulfonyl)piperidin-4-yl)-5-(trifluoromethyl)pyrimidin-2-amine] |
| < 50 | Cc1nc(CN2CCN(C(C)C)CC2)ccc1-n1cc(-c2nc(NC3CCN(S(=O)(=O)c4cn(C)cn4)CC3)ncc2C(F)(F)F)cn1 [Example 254, 4-(1-(6-((4-Isopropylpiperazin-1-yl)methyl)-2-methylpyridin-3-yl)-1H-pyrazol-4-yl)-N-(1-((1-methyl-1H-imidazol-4-yl)sulfonyl)piperidin-4-yl)-5-(trifluoromethyl)pyrimidin-2-amine] |
| < 50 | Cc1nc(CN2CCN(C)CC2)ccc1-n1cc(-c2nc(N[C@H]3CCN(S(=O)(=O)c4cn(C)cn4)C[C@H]3C)ncc2C(F)(F)F)cn1 [Example 255, N-((3R,4S)-3-methyl-1-((1-methyl-1H-imidazol-4-yl)sulfonyl)piperidin-4-yl)-4-(1-(2-methyl-6-((4-methylpiperazin-1-yl)methyl)pyridin-3-yl)-1H-pyrazol-4-yl)-5-(trifluoromethyl)pyrimidin-2-amine] |
| < 50 | CCN1CCN(Cc2ccc(-n3cc(-c4nc(N[C@H]5CCN(S(=O)(=O)c6cn(C)cn6)C[C@H]5C)ncc4C(F)(F)F)cn3)c(C)n2)CC1 [Example 256, 4-(1-(6-((4-Ethylpiperazin-1-yl)methyl)-2-methylpyridin-3-yl)-1H-pyrazol-4-yl)-N-((3R,4S)-3-methyl-1-((1-methyl-1H-imidazol-4-yl)sulfonyl)piperidin-4-yl)-5-(trifluoromethyl)pyrimidin-2-amine] |
| < 50 | Cc1nc(CN2CCN(C(C)C)CC2)ccc1-n1cc(-c2nc(N[C@H]3CCN(S(=O)(=O)c4cn(C)cn4)C[C@H]3C)ncc2C(F)(F)F)cn1 [Example 257, 4-(1-(6-((4-Isopropylpiperazin-1-yl)methyl)-2-methylpyridin-3-yl)-1H-pyrazol-4-yl)-N-((3R,4S)-3-methyl-1-((1-methyl-1H-imidazol-4-yl)sulfonyl)piperidin-4-yl)-5-(trifluoromethyl)pyrimidin-2-amine] |
| < 50 | CN1CCN(Cc2ccc(-n3cc(-c4nc(NC5CCN(S(=O)(=O)c6ccccn6)CC5)ncc4C#N)cn3)c(Cl)c2)CC1 [Example 258, 4-(1-(2-Chloro-4-((4-methylpiperazin-1-yl)methyl)phenyl)-1H-pyrazol-4-yl)-2-((1-(pyridin-2-ylsulfonyl)piperidin-4-yl)amino)pyrimidine-5-carbonitrile] |
| < 50 | CN1CCN(Cc2ccc(-n3cc(-c4nc(NC5CCN(S(=O)(=O)C6CC6)CC5)ncc4C#N)cn3)c(Cl)c2)CC1 [Example 259, 4-(1-(2-Chloro-4-((4-methylpiperazin-1-yl)methyl)phenyl)-1H-pyrazol-4-yl)-2-((1-(cyclopropylsulfonyl)piperidin-4-yl)amino)pyrimidine-5-carbonitrile] |
| < 50 | CN1CCN(Cc2ccc(-n3cc(-c4nc(NC5CCN(S(=O)(=O)c6cn(C)cn6)CC5)ncc4C#N)cn3)c(Cl)c2)CC1 [Example 261, 4-(1-(2-Chloro-4-((4-methylpiperazin-1-yl)methyl)phenyl)-1H-pyrazol-4-yl)-2-((1-((1-methyl-1H-imidazol-4-yl)sulfonyl)piperidin-4-yl)amino)pyrimidine-5-carbonitrile] |
| < 50 | Cc1nc(CNC(C)(C)C)ccc1-n1cc(-c2nc(NC3CCN(S(C)(=O)=O)CC3)ncc2C#N)cn1 [Example 262, 4-(1-(6-((tert-Butylamino)methyl)-2-methylpyridin-3-yl)-1H-pyrazol-4-yl)-2-((1-(methylsulfonyl)piperidin-4-yl)amino)pyrimidine-5-carbonitrile] |
| < 50 | Cc1nc(CNC(C)(C)C2CC2)ccc1-n1cc(-c2nc(NC3CCN(S(C)(=O)=O)CC3)ncc2C#N)cn1 [Example 263, 4-(1-(6-(((2-Cyclopropylpropan-2-yl)amino)methyl)-2-methylpyridin-3-yl)-1H-pyrazol-4-yl)-2-((1-(methylsulfonyl)piperidin-4-yl)amino)pyrimidine-5-carbonitrile] |
| < 50 | Cc1nc(CNC(C)(C)C(N)=O)ccc1-n1cc(-c2nc(NC3CCN(S(C)(=O)=O)CC3)ncc2C#N)cn1 [Example 264, 2-(((5-(4-(5-Cyano-2-((1-(methylsulfonyl)piperidin-4-yl)amino)pyrimidin-4-yl)-1H-pyrazol-1-yl)-6-methylpyridin-2-yl)methyl)amino)-2-methylpropanamide] |
| < 50 | Cc1nc(CN[C@]2(C)C[C@H](O)C2)ccc1-n1cc(-c2nc(NC3CCN(S(C)(=O)=O)CC3)ncc2C#N)cn1 [Example 265] |
| < 50 | CNCc1ccc(-n2cc(-c3nc(NC4CCN(S(=O)(=O)c5cn(C)cn5)CC4)ncc3Cl)cn2)c(C)n1 [Example 266, 5-Chloro-N-(1-((1-methyl-1H-imidazol-4-yl)sulfonyl)piperidin-4-yl)-4-(1-(2-methyl-6-((methylamino)methyl)pyridin-3-yl)-1H-pyrazol-4-yl)pyrimidin-2-amine] |
| < 50 | CCNCc1ccc(-n2cc(-c3nc(NC4CCN(S(=O)(=O)c5cn(C)cn5)CC4)ncc3Cl)cn2)c(C)n1 [Example 267, 5-Chloro-4-(1-(6-((ethylamino)methyl)-2-methylpyridin-3-yl)-1H-pyrazol-4-yl)-N-(1-((1-methyl-1H-imidazol-4-yl)sulfonyl)piperidin-4-yl)pyrimidin-2-amine] |
